Results from ChEMBL document CHEMBL1201862, “PubChem BioAssay data set” (2004).
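Assay format: 96-well plates, 48-hour exposure. Abbreviation: GI50, concentration required for 50% inhibition of growth.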 Activity calls are given as the source filed them. Rule as the data show it: active = GI50 up to about 1.1 µM and inactive = higher.

Assays:
Assay in all cases: NCI anticancer screen, dose series, 48 h
[1] = test system: A549
[2] = test system: SNB-19
[3] = test system: OVCAR-4
[4] = test system: OVCAR-3
[5] = test system: SF-539
[6] = test system: DU-145
[7] = test system: HOP-62
[8] = test system: TK-10
[9] = test system: NCI/ADR-RES
[10] = test system: SK-MEL-5
[11] = test system: NCI-H522
[12] = test system: NCI-H226
[13] = test system: OVCAR-5
[14] = test system: 786-0
[15] = test system: Malme-3M
[16] = test system: UACC-62
[17] = test system: A498
[18] = test system: SF-295
[19] = test system: SW-620
[20] = test system: HT-29
[21] = test system: EKVX
[22] = test system: MDA-N
[23] = test system: SK-MEL-28
[24] = test system: UO-31
[25] = test system: SNB-75
[26] = test system: IGROV-1
[27] = test system: SR
[28] = test system: NCI-H23
[29] = test system: RXF 393
[30] = test system: LOX IMVI
[31] = test system: Hs-578T
[32] = test system: RPMI-8226
[33] = test system: U-251
[34] = test system: HCT-15
[35] = test system: NCI-H460
[36] = test system: CCRF-CEM
[37] = test system: PC-3
[38] = test system: MCF7
[39] = test system: MDA-MB-231
[40] = test system: COLO 205
[41] = test system: ACHN
[42] = test system: SF-268
[43] = test system: HL-60
[44] = test system: HCT-116
[45] = test system: T47D
[46] = test system: MDA-MB-435
[47] = test system: HOP-92
[48] = test system: MOLT-4
[49] = test system: M14
[50] = test system: SK-MEL-2
[51] = test system: KM12
[52] = test system: SN12C
[53] = test system: UACC-257
[54] = test system: OVCAR-8
[55] = test system: CAKI-1
[56] = test system: BT-549
[57] = test system: SK-OV-3
[58] = test system: K562

O=C(O)/C=C(/C(=O)O)C12CCN3CC4=CCOC5CC(=O)NC1C5C4CC32 (stereo not drawn)
GI50 [1]: > 100 µM (inactive)
GI50 [2]: > 100 µM (inactive)
GI50 [3]: > 100 µM (inactive)
GI50 [4]: > 100 µM (inactive)
GI50 [5]: > 100 µM (inactive)
GI50 [6]: > 100 µM (inactive)
GI50 [7]: > 100 µM (inactive)
GI50 [8]: > 100 µM (inactive)
GI50 [9]: > 100 µM (inactive)
GI50 [10]: > 100 µM (inactive)
GI50 [11]: > 100 µM (inactive)
GI50 [12]: > 100 µM (inactive)
GI50 [13]: > 100 µM (inactive)
GI50 [14]: > 100 µM (inactive)
GI50 [15]: > 100 µM (inactive)
GI50 [16]: > 100 µM (inactive)
GI50 [17]: > 100 µM (inactive)
GI50 [18]: > 100 µM (inactive)
GI50 [19]: > 100 µM (inactive)
GI50 [20]: > 100 µM (inactive)
GI50 [21]: > 100 µM (inactive)
GI50 [22]: > 100 µM (inactive)
GI50 [23]: > 100 µM (inactive)
GI50 [24]: > 100 µM (inactive)
GI50 [25]: > 100 µM (inactive)
GI50 [26]: > 100 µM (inactive)
GI50 [27]: > 100 µM (inactive)
GI50 [28]: > 100 µM (inactive)
GI50 [29]: > 100 µM (inactive)
GI50 [30]: > 100 µM (inactive)
GI50 [31]: > 100 µM (inactive)
GI50 [32]: > 100 µM (inactive)
GI50 [33]: > 100 µM (inactive)
GI50 [34]: > 100 µM
GI50 [35]: > 100 µM (inactive)
GI50 [36]: > 100 µM (inactive)
GI50 [37]: > 100 µM (inactive)
GI50 [38]: > 100 µM (inactive)
GI50 [39]: > 100 µM (inactive)
GI50 [40]: > 100 µM (inactive)
GI50 [41]: > 100 µM (inactive)
GI50 [42]: > 100 µM (inactive)
GI50 [43]: > 100 µM (inactive)
GI50 [44]: > 100 µM (inactive)
GI50 [45]: > 100 µM (inactive)
GI50 [46]: > 100 µM (inactive)
GI50 [47]: > 100 µM (inactive)
GI50 [48]: > 100 µM (inactive)
GI50 [49]: > 100 µM (inactive)
GI50 [50]: > 100 µM (inactive)
GI50 [51]: > 100 µM (inactive)
GI50 [52]: > 100 µM (inactive)
GI50 [53]: > 100 µM (inactive)
GI50 [54]: > 100 µM (inactive)
GI50 [55]: > 100 µM (inactive)
GI50 [56]: > 100 µM (inactive)
GI50 [57]: > 100 µM (inactive)
GI50 [58]: > 100 µM (inactive)
